From patent US11130733B2, “4-OXO-alkylated tetramic acid compound, preparation method and use thereof” (BEIJING JOEKAI BIOTECH. LLC, priority 2017, dated 2021)

Experiments:
[1] = test system: Transgenic mice containing APP/PS1; experiment: Water maze test of spatial memory in mice; assay type: in vivo
Protocol: Transgenic mice containing APP/PS1 were purchased from the Jackson Laboratory of the USA. The transgenic mice were crossbred with B6/C3 background mice. Their offspring were self-bred, genotyped, and each fed in a separate cage for about 8 months. One week before the test, a prescribed dose of medicament was administered to the mice by gavage each day, and then the spatial memory of the mice was measured by water maze test. A water tank with a diameter of 1.5 meters was filled with water at a constant temperature of 25 degrees, and skim milk was added to render the water surface opaque. A transparent platform was placed in a specific quadrant of the water tank. Distant hints were provided as spatial reference. The mice were put into the water and allowed to swim until they found the platform under the surface of water. The whole process was tracked by software, and the time from launching to finding the platform, called a latent period, was recorded thereby. If a mouse could not find the platform within 60 seconds, it was manually guided to the platform and its latent period was recorded as 60 seconds. Four rounds of the above tests were carried out on each mouse every day, with a one-hour interval between every two rounds of tests for the mice to rest. The latent period of each mouse on a day was the average of the four rounds of tests on the same day.

[2] = test system: Drosophilae containing and expressing human Abeta42 gene; experiment: Pavlov's olfactory-related instantaneous memory test in Drosophila; assay type: in vivo; details: test medicament 100 μM, 50 μL per 100 drosophilae, 7 consecutive days; FIG. 1 and FIG. 2
Text: Drosophila has a classical learning and memory paradigm, known as Pavlov's olfactory-related instantaneous memory. During the training program, a group of about 100 drosophilae were exposed sequentially to two odors, i.e., 3-octanol and 4-methylcyclohexanol, each odor for 60 seconds, and to fresh air for 45 seconds therebetween. During exposure to the first odor, the drosophilae were electrocuted on their feet (1.5-second pulses at 3.5-second intervals, 60V), while no electrocution was exerted during exposure to the second odor. In order to detect “instantaneous memory” (also known as “learning”), drosophilae were transferred to the selection area in the T maze immediately after training and forced to choose between the two odors. The drosophilae in each T-maze arm were then captured, anesthetized, and counted. The behavior index was calculated from the distribution of drosophilae in the T maze. […] In each experiment, the age of the control group was matched with that of the experimental group.
Pharmacodynamic evaluation of the candidate compounds: Drosophilae containing and expressing human Abeta42 gene were selected as a diseased control, and drosophilae containing but not expressing human Abeta42 gene were selected as a healthy control. The day after emergence of the drosophilae, male drosophilae were selected and fed. Starting from the third day, drosophilae were fed with a test medicament (100 μM, 50 μL per 100 drosophilae) for 7 consecutive days, 4 hours each day. The above memory test was performed on the drosophilae on the tenth day.

Structure (SMILES): O=C1C=C(OCc2ccc(F)cc2)[C@H](Cc2ccccc2)N1 [Compound 50561]
- ability to rescue the spatial memory of mice ([1]; 0.1 mg/kg by gavage, FIG. 5): no ability to rescue the spatial memory of mice
- ability to rescue the spatial memory of mice ([1]; 1 mg/kg by gavage, FIG. 5): no ability to rescue the spatial memory of mice
- ability to rescue the spatial memory of mice ([1]; 10 mg/kg by gavage, FIG. 4): good ability to rescue the spatial memory of mice
- ability to improve the learning and memory of drosophilae [2]: best ability to improve the learning and memory of drosophilae
